Test results from US8445510B2, “Fused bicyclic kinase inhibitors” (OSI Pharmaceuticals, LLC, priority 2011, dated 2013).

Assays:
RON = target: T1, RON (Homo sapiens, UniProt Q04912); test: sfRON cell mechanistic assay (HeLa), phosphorylated RON ELISA; format: cell-based; conditions: HeLa cells transfected with sfRON; inhibition of phosphorylated RON; four hours incubation; at least duplicate experiments; read-out: sfRON mech IC50
T1 sequence (Q04912 913-1400): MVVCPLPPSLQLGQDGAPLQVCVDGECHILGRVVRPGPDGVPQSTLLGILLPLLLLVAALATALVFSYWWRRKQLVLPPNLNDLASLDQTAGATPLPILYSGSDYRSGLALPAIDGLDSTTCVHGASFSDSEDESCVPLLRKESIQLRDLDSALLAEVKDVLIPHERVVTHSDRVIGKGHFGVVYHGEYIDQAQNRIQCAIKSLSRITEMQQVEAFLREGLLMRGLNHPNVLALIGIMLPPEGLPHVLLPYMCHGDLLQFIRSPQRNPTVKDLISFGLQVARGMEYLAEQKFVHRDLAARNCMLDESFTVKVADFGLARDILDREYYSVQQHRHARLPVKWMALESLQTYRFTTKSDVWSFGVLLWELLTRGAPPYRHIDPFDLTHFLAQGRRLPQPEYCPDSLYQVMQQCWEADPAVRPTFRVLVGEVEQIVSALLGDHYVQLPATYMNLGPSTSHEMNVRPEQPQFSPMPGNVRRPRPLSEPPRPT
In short: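 HeLa cells transiently transfected with sfRON plasmid, then exposed 4 h at 37 °C to a 6-point compound series (typically 10 μM to 3 nM, 0.5% DMSO). Phospho-RON (pY1238/1239) in lysates measured by sandwich ELISA with luminescence. IC50 from 4-parameter fit of percent-of-DMSO-control data, at least duplicate runs.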

Karpas-299 cells = test: Karpas-299 cell proliferation assay (CellTiter-Glo); format: cell-based; conditions: Homo sapiens, 72 h; Karpas-299 cell line (NPM-ALK); 3 days incubation; at least duplicate experiments; read-out: Prolif. IC50

Compound | IC50 (RON) [nM] | IC50 (Karpas-299 cells) [nM]
COc1ccc(F)c(Cl)c1[C@@H](C)c1c[nH]c2ncc(-c3cnc(C)n3C)cc12 [Example 65, 3-[(1S)-1-(2-chloro-3-fluoro-6-methoxyphenyl)ethyl]-5-(1,2-dimethyl-1H-imidazol-5-yl)-1H-pyrrolo[2,3-b]pyridine] | > 1000 | 200 to 1000
COc1ccc(F)c(Cl)c1[C@@H](C)c1c[nH]c2ncc(-c3cn(C)nc3C)cc12 [Example 2, 3-[(1S)-1-(2-Chloro-3-fluoro-6-methoxyphenyl)ethyl]-5-(1,3-dimethyl-1H-pyrazol-4-yl)-1H-pyrrolo[2,3-b]pyridine] | 200 to 1000 | 50 to 200
COc1ccc(F)c(Cl)c1[C@@H](C)c1c[nH]c2ncc(-c3cn(C)nc3CO)cc12 [Example 42, (4-{3-[(1S)-1-(2-Chloro-3-fluoro-6-methoxyphenyl)ethyl]-1H-pyrrolo[2,3-b]pyridin-5-yl}-1-methyl-1H-pyrazol-3-yl)methanol] | > 1000 | 50 to 200
COc1ccc(F)c(Cl)c1[C@@H](C)c1c[nH]c2ncc(-c3cn(C)nc3OC)cc12 [Example 61, 3-[(1S)-1-(2-Chloro-3-fluoro-6-methoxyphenyl)ethyl]-5-(3-methoxy-1-methyl-1H-pyrazol-4-yl)-1H-pyrrolo[2,3-b]pyridine] | 200 to 1000 | 200 to 1000
COc1ccc(F)c(Cl)c1[C@@H](C)c1c[nH]c2ncc(-c3cnn(C)c3OC)cc12 [Example 62, 3-[(1S)-1-(2-chloro-3-fluoro-6-methoxyphenyl)ethyl]-5-(5-methoxy-1-methyl-1H-pyrazol-4-yl)-1H-pyrrolo[2,3-b]pyridine] | > 1000 | 200 to 1000
COc1ccc(F)c(Cl)c1[C@@H](C)c1c[nH]c2ncc(-c3cnn(C)c3CO)cc12 [Example 44, (4-{3-[(1S)-1-(2-Chloro-3-fluoro-6-methoxyphenyl)ethyl]-1H-pyrrolo[2,3-b]pyridin-5-yl}-1-methyl-1H-pyrazol-5-yl)methanol] | > 1000 | 50 to 200
COc1ccc(F)c(Cl)c1[C@@H](C)c1c[nH]c2ncc(-c3c[nH]nc3C)cc12 [Example 1, 3-[(1S)-1-(2-Chloro-3-fluoro-6-methoxyphenyl)ethyl]-5-(3-methyl-1H-pyrazol-4-yl)-1H-pyrrolo[2,3-b]pyridine] | 200 to 1000 | 50 to 200
COc1ccc(F)c(Cl)c1[C@@H](C)c1c[nH]c2ncc(-c3c(C)nn([C@@H]4C[C@@H](O)[C@@H](O)C4)c3C)cc12 [Example 33, (1R,2S,4S)-4-(4-{3-[(1S)-1-(2-Chloro-3-fluoro-6-methoxyphenyl)ethyl]-1H-pyrrolo[2,3-b]pyridin-5-yl}-3,5-dimethyl-1H-pyrazol-1-yl)cyclopentane-1,2-diol] | 200 to 1000 | ≤ 50
COc1ccc(F)c(Cl)c1[C@@H](C)c1c[nH]c2ncc(-c3c(CO)nn(C)c3C)cc12 [Example 51, (4-{3-[(1S)-1-(2-Chloro-3-fluoro-6-methoxyphenyl)ethyl]-1H-pyrrolo[2,3-b]pyridin-5-yl}-1,5-dimethyl-1H-pyrazol-3-yl)methanol] | > 1000 | 50 to 200
COc1ccc(F)c(Cl)c1[C@@H](C)c1c[nH]c2ncc(-c3cnn(C[C@H](O)CO)c3C)cc12 [Example 10, (2S)-3-(4-{3-[(1S)-1-(2-Chloro-3-fluoro-6-methoxyphenyl)ethyl]-1H-pyrrolo[2,3-b]pyridin-5-yl}-5-methyl-1H-pyrazol-1-yl)propane-1,2-diol] | ≤ 200 | ≤ 50

Continued, values first:

IC50 (RON) [nM] | IC50 (Karpas-299 cells) [nM] | Compound
≤ 200 | ≤ 50 | Cc1c(-c2cnc3[nH]cc([C@H](C)c4c(OC(F)F)ccc(F)c4Cl)c3c2)cnn1C1CCNCC1 [Example 96, 3-{(1S)-1-[2-Chloro-6-(difluoromethoxy)-3-fluorophenyl]ethyl}-5-[5-methyl-1-(piperidin-4-yl)-1H-pyrazol-4-yl]-1H-pyrrolo[2,3-b]pyridine]
≤ 200 | ≤ 50 | Cc1c(-c2cnc3[nH]cc([C@H](C)c4c(OCC(F)(F)F)ccc(F)c4Cl)c3c2)cnn1[C@H]1CC[C@H](O)CC1 [Example 105, trans-4-[4-(3-{(1S)-1-[2-Chloro-3-fluoro-6-(2,2,2-trifluoroethoxy)-phenyl]ethyl}-1H-pyrrolo[2,3-b]pyridin-5-yl)-5-methyl-1H-pyrazol-1-yl]cyclohexanol]
≤ 200 | 50 to 200 | CCc1nn([C@H]2CC[C@H](O)CC2)cc1-c1cnc2[nH]cc([C@H](C)c3c(OC(F)F)ccc(F)c3Cl)c2c1 [Example 77, trans-4-[4-(3-{(1S)-1-[2-Chloro-6-(difluoromethoxy)-3-fluorophenyl]ethyl}-1H-pyrrolo[2,3-b]pyridin-5-yl)-3-ethyl-1H-pyrazol-1-yl]cyclohexanol]
200 to 1000 | 50 to 200 | Cc1c(-c2cnc3[nH]cc([C@@H](CF)c4c(OC(F)F)ccc(F)c4Cl)c3c2)cnn1[C@H]1CC[C@H](O)CC1 [Example 123, trans-4-[4-(3-{(1R)-1-[2-chloro-6-(difluoromethoxy)-3-fluorophenyl]-2-fluoroethyl}-1H-pyrrolo[2,3-b]pyridin-5-yl)-5-methyl-1H-pyrazol-1-yl]cyclohexanol]
≤ 200 | ≤ 50 | CNC(=O)[C@H]1CC[C@H](n2ncc(-c3cnc4[nH]cc([C@H](C)c5c(OC)ccc(F)c5Cl)c4c3)c2C)CC1 [Example 17, trans-4-(4-{3-[(1S)-1-(2-Chloro-3-fluoro-6-methoxyphenyl)ethyl]-1H-pyrrolo[2,3-b]pyridin-5-yl}-5-methyl-1H-pyrazol-1-yl)-N-methyl cyclohexanecarboxamide]
200 to 1000 | ≤ 50 | COc1ccc(F)c(Cl)c1[C@@H](C)c1c[nH]c2ncc(-c3cnn([C@H]4CC[C@@H](N(C)C)CC4)c3C)cc12 [Example 54, cis-4-(4-{3-[(1S)-1-(2-Chloro-3-fluoro-6-methoxyphenyl)ethyl]-1H-pyrrolo[2,3-b]pyridin-5-yl}-5-methyl-1H-pyrazol-1-yl)-N,N-dimethylcyclohexanamine]
≤ 200 | ≤ 50 | Cc1c(-c2cnc3[nH]cc([C@H](C)c4c(OC(F)F)ccc(F)c4Cl)c3c2)cnn1[C@H]1CC[C@H](O)CC1 [Example 74, trans-4-[4-(3-{(1S)-1-[2-Chloro-6-(difluoromethoxy)-3-fluorophenyl]ethyl}-1H-pyrrolo[2,3-b]pyridin-5-yl)-5-methyl-1H-pyrazol-1-yl]cyclohexanol]
200 to 1000 | ≤ 50 | [2H][C@@](C)(c1c(OC)ccc(F)c1Cl)c1c[nH]c2ncc(-c3cnn([C@H]4CC[C@H](O)CC4)c3C)cc12 [Example 110, trans-4-(4-{3-[(1S)-1-(2-Chloro-3-fluoro-6-methoxyphenyl)(1-^2H)ethyl]-1H-pyrrolo[2,3-b]pyridin-5-yl}-5-methyl-1H-pyrazol-1-yl)cyclohexanol]
200 to 1000 | ≤ 50 | COc1ccc(F)c(Cl)c1[C@@H](C)c1c[nH]c2ncc(-c3cnn([C@H]4CC[C@H](C(N)=O)CC4)c3C)cc12 [Example 18, trans-4-(4-{3-[(1S)-1-(2-chloro-3-fluoro-6-methoxyphenyl)ethyl]-1H-pyrrolo[2,3-b]pyridin-5-yl}-5-methyl-1H-pyrazol-1-yl)cyclohexanecarboxamide]
≤ 200 | ≤ 50 | CCOc1ccc(F)c(Cl)c1[C@@H](C)c1c[nH]c2ncc(-c3cnn([C@H]4CC[C@H](O)CC4)c3C)cc12 [Example 103, trans-4-(4-{3-[(1S)-1-(2-Chloro-6-ethoxy-3-fluorophenyl)ethyl]-1H-pyrrolo[2,3-b]pyridin-5-yl}-5-methyl-1H-pyrazol-1-yl)cyclohexanol]
200 to 1000 | 50 to 200 | COc1ccc(F)c(Cl)c1[C@@H](C)c1c[nH]c2ncc(-c3cnn(C)c3C)cc12 [Example 3, 3-[(1S)-1-(2-Chloro-3-fluoro-6-methoxyphenyl)ethyl]-5-(1,5-dimethyl-1H-pyrazol-4-yl)-1H-pyrrolo[2,3-b]pyridine]
200 to 1000 | 50 to 200 | [2H]C([2H])([2H])Oc1ccc(F)c(Cl)c1[C@@H](C)c1c[nH]c2ncc(-c3cnn([C@H]4CC[C@H](O)CC4)c3C)cc12 [Example 107, trans-4-(4-{3-[(1S)-1-{2-Chloro-3-fluoro-6-[(^2H3)methyloxy]phenyl}ethyl]-1H-pyrrolo[2,3-b]pyridin-5-yl}-5-methyl-1H-pyrazol-1-yl)cyclohexanol]
> 1000 | 50 to 200 | CCc1c(-c2cnc3[nH]cc([C@H](C)c4c(OC)ccc(F)c4Cl)c3c2)cnn1[C@H]1CC[C@H](O)CC1 [Example 48, trans-4-(4-{3-[(1S)-1-(2-Chloro-3-fluoro-6-methoxyphenyl)ethyl]-1H-pyrrolo[2,3-b]pyridin-5-yl}-5-ethyl-1H-pyrazol-1-yl)cyclohexanol]
200 to 1000 | 50 to 200 | Cc1c(-c2cnc3[nH]cc([C@H](C)c4c(OC(F)F)ccc(F)c4Cl)c3c2)cnn1[C@H]1C[C@@](C)(O)C1 [Example 79, cis-3-[4-(3-{(1S)-1-[2-Chloro-6-(difluoromethoxy)-3-fluorophenyl]ethyl}-1H-pyrrolo[2,3-b]pyridin-5-yl)-5-methyl-1H-pyrazol-1-yl]-1-methylcyclobutanol]
